Columns and labels:
[1] = DRUGMATRIX: Interleukin IL-1 radioligand binding (ligand: [125I] interleukin 1beta); assay type: cell membranes, Membrane; details: nih3t3; Not Active = under 50% inhibition at 10 µM
[2] = biological target: Nitric oxide synthase 1 (Rattus norvegicus, UniProt P29476); assay type: tissue-based, Cerebellum; also: in other assays of this panel Not Active means under 50% inhibition at 10 µM
[3] = DRUGMATRIX: Glutamate, AMPA radioligand binding (ligand: [3H] AMPA); assay type: cell membranes, Rattus norvegicus, Wistar, Cerebral cortex, Membrane; details: Not Active = under 50% inhibition at 10 µM
[4] = biological target: T1, Amine oxidase [flavin-containing] A (Homo sapiens, UniProt P21397); assay: DRUGMATRIX: Monoamine Oxidase MAO-A enzyme inhibition (substrate: Kynuramine); design: species or system BTI-TN-5B1-4; details: bti-tn-5b1-4; Not Active = under 50% inhibition at 10 µM
T1 sequence (P21397 whole entry): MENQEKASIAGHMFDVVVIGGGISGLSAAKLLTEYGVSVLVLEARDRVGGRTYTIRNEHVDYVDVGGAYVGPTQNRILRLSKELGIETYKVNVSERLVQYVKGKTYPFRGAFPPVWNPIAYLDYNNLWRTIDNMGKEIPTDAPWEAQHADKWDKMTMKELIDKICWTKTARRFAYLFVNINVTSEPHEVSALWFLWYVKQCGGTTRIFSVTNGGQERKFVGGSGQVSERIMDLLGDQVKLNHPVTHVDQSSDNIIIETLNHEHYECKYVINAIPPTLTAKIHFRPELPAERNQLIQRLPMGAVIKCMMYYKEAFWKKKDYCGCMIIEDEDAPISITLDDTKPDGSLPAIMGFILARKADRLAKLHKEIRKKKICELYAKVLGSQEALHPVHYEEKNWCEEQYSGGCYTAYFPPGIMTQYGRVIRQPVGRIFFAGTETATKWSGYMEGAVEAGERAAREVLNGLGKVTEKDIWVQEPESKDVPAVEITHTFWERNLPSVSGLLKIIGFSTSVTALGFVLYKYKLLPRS

[5] = biological target: T2, 3-hydroxy-3-methylglutaryl-coenzyme A reductase (Homo sapiens, UniProt P04035); design: species or system Escherichia coli;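 also: enzyme inhibition assay of HMG-CoA reductase using radiolabeled [14C]HMG-CoA as substrate; in other assays of this panel Not Active means under 50% inhibition at 10 µM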
T2 sequence (P04035 whole entry): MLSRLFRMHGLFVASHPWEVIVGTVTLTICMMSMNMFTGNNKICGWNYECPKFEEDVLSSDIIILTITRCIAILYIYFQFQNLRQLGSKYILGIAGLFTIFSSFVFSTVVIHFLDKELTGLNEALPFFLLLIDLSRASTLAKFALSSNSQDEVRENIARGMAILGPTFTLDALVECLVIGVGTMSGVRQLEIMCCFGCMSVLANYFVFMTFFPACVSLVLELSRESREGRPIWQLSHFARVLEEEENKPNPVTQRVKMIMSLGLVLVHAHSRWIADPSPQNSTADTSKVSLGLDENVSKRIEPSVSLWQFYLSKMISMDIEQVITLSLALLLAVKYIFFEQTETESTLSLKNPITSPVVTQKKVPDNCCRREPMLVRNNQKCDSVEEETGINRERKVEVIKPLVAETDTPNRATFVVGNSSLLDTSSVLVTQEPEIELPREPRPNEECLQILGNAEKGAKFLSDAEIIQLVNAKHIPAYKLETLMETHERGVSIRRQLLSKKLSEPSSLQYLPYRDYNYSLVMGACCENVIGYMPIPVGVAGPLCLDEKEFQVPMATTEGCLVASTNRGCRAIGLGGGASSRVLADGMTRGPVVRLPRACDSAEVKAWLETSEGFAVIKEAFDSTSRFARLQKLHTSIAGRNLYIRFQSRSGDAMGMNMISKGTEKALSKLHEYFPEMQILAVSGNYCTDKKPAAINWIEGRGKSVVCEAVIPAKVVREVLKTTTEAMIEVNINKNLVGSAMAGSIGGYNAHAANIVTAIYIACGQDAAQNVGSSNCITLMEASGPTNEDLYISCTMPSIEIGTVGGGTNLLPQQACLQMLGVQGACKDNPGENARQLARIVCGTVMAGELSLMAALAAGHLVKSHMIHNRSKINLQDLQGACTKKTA

[6] = biological target: Cytochrome P450 2C19 (Homo sapiens, UniProt P33261); details: bti-tn-5b1-4; also: in other assays of this panel Not Active means under 50% inhibition at 10 µM
[7] = DRUGMATRIX: Imidazoline I2, Central radioligand binding (ligand: [3H] Idazoxan); assay type: cell membranes, Rattus norvegicus, Wistar, Cerebral cortex, Membrane; details: Not Active = under 50% inhibition at 10 µM

Nitric oxide synthase 1, sequence (P29476 whole entry): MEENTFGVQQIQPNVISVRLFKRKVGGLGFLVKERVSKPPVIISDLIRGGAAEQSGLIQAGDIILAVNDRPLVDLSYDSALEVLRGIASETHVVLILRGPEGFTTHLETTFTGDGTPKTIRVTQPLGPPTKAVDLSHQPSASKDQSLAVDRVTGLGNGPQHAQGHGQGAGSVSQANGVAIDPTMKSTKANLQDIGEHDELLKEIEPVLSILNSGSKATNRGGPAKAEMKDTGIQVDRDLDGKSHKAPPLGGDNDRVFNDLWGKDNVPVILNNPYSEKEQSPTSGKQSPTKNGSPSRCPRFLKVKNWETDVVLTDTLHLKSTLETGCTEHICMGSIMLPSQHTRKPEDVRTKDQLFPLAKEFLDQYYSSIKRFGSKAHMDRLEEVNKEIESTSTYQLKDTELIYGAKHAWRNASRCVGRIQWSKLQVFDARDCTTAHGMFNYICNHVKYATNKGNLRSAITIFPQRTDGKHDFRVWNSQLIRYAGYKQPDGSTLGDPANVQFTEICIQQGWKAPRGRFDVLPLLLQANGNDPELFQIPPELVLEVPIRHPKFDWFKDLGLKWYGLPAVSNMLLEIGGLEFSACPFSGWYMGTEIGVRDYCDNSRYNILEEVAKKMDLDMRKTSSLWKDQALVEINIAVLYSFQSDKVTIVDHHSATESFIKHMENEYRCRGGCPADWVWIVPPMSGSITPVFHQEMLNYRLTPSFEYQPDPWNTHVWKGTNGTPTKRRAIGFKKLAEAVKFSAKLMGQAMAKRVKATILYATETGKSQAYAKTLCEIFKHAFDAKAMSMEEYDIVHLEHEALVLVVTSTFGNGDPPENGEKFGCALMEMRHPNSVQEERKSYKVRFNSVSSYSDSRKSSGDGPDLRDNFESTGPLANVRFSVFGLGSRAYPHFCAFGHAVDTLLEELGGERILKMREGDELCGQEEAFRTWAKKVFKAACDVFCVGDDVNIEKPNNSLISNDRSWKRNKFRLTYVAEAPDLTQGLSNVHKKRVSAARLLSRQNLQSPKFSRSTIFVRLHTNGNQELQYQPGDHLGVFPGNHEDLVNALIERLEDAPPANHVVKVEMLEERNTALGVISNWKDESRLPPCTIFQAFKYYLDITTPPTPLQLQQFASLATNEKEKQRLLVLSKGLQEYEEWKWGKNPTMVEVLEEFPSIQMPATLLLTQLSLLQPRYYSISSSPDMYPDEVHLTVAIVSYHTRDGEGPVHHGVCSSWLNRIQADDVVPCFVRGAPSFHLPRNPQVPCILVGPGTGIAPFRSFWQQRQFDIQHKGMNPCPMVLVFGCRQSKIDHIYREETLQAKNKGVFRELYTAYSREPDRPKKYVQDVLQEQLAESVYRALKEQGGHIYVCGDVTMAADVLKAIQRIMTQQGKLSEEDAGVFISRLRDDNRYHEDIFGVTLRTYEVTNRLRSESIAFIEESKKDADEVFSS
Cytochrome P450 2C19, sequence (P33261 whole entry): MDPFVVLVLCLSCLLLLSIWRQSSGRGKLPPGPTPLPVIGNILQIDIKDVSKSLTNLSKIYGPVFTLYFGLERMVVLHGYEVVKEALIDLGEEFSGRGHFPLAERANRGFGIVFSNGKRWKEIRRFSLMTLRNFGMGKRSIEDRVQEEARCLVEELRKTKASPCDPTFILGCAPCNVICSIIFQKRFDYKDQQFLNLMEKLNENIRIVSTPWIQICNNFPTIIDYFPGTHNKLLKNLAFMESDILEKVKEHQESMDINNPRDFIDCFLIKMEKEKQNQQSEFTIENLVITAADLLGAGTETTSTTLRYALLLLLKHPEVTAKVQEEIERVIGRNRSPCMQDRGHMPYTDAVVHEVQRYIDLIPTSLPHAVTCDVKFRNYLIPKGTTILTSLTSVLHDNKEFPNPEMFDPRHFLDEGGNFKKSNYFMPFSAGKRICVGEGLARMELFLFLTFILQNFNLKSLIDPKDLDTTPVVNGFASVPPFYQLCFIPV

CO[C@@]1(NC(=O)CSCC#N)C(=O)N2C(C(=O)O)=C(CSc3nnnn3C)CS[C@@H]21 [CEFMETAZOLE]
Not Active: IC50 [1] | Ki [1] | IC50 [2] | IC50 [3] | Ki [3] | IC50 [4] | IC50 [5] | IC50 [6] | Ki [6] | IC50 [7] | Ki [7]

CC(C(=O)O)c1ccc(CC2CCCC2=O)cc1 (stereo unspecified) [LOXOPROFEN]
Not Active: IC50 [1] | Ki [1] | IC50 [2] | IC50 [3] | Ki [3] | IC50 [4] | IC50 [5] | IC50 [6] | Ki [6] | IC50 [7] | Ki [7]

CCCCCC[C@H]1C(=O)O[C@H](C)[C@H](NC(=O)c2cccc(NC=O)c2O)C(=O)O[C@@H](C)[C@@H]1OC(=O)CC(C)C [ANTIMYCIN A]
Not Active: IC50 [1] | Ki [1] | IC50 [2] | IC50 [3] | Ki [3] | IC50 [4] | IC50 [5] | IC50 [6] | Ki [6] | IC50 [7] | Ki [7]

C#C[C@]1(O)CC[C@H]2[C@@H]3CCc4cc(O)ccc4[C@H]3CC[C@@]21C [ETHINYL ESTRADIOL]
Not Active: IC50 [1] | Ki [1] | IC50 [2] | IC50 [3] | Ki [3] | IC50 [4] | IC50 [5] | IC50 [6] | Ki [6] | IC50 [7] | Ki [7]

CC[C@H]1OC(=O)[C@H](C)[C@@H](O[C@H]2C[C@@](C)(OC)[C@@H](O)[C@H](C)O2)[C@H](C)[C@@H](O[C@@H]2O[C@H](C)C[C@H](N(C)C)[C@H]2O)[C@](C)(O)C[C@@H](C)CN(C)[C@H](C)[C@@H](O)[C@]1(C)O [AZITHROMYCIN]
Not Active: IC50 [1] | Ki [1] | IC50 [2] | IC50 [3] | Ki [3] | IC50 [4] | IC50 [5] | IC50 [6] | Ki [6] | IC50 [7] | Ki [7]

CCCCC1C(=O)N(c2ccccc2)N(c2ccccc2)C1=O [PHENYLBUTAZONE]
Not Active: IC50 [1] | Ki [1] | IC50 [2] | IC50 [3] | Ki [3] | IC50 [4] | IC50 [5] | IC50 [6] | Ki [6] | IC50 [7] | Ki [7]

C=C1/C(=C\C=C2/CCC[C@]3(C)[C@@H]([C@H](C)CCCC(C)C)CC[C@@H]23)C[C@@H](O)C[C@@H]1O [ALFACALCIDOL]
Not Active: IC50 [1] | Ki [1] | IC50 [2] | IC50 [3] | Ki [3] | IC50 [4] | IC50 [5] | IC50 [6] | Ki [6] | IC50 [7] | Ki [7]

NC(=O)N1c2ccccc2C=Cc2ccccc21 [CARBAMAZEPINE]
Not Active: IC50 [1] | Ki [1] | IC50 [2] | IC50 [3] | Ki [3] | IC50 [4] | IC50 [5] | IC50 [6] | Ki [6] | IC50 [7] | Ki [7]

Cc1cccc(Nc2cc(Cl)nc(SCC(=O)O)n2)c1C [PIRINIXIC ACID]
Not Active: IC50 [1] | Ki [1] | IC50 [2] | IC50 [3] | Ki [3] | IC50 [4] | IC50 [5] | IC50 [6] | Ki [6] | IC50 [7] | Ki [7]

CC(CCc1ccc(O)cc1)NCCc1ccc(O)c(O)c1 (stereo unspecified) [DOBUTAMINE]
Not Active: IC50 [1] | Ki [1] | IC50 [2] | IC50 [3] | Ki [3] | IC50 [4] | IC50 [5] | IC50 [6] | Ki [6] | IC50 [7] | Ki [7]

[N-]=[N+]=CC(=O)OC[C@H](N)C(=O)O [AZASERINE]
Not Active: IC50 [1] | Ki [1] | IC50 [2] | IC50 [3] | Ki [3] | IC50 [4] | IC50 [5] | IC50 [6] | Ki [6] | IC50 [7] | Ki [7]

C[C@H](C(=O)O)c1cccc(C(=O)c2ccccc2)c1 [DEXKETOPROFEN]
Not Active: IC50 [1] | Ki [1] | IC50 [2] | IC50 [3] | Ki [3] | IC50 [4] | IC50 [5] | IC50 [6] | Ki [6] | IC50 [7] | Ki [7]

O=c1cc(-c2ccccc2)oc2ccc3ccccc3c12 [BETA-NAPHTHOFLAVONE]
Not Active: IC50 [1] | Ki [1] | IC50 [2] | IC50 [3] | Ki [3] | IC50 [4] | IC50 [5] | IC50 [6] | Ki [6] | IC50 [7] | Ki [7]

Cc1c(N(C)CS(=O)(=O)[O-])c(=O)n(-c2ccccc2)n1C.[Na+] [DIPYRONE SODIUM]
Not Active: IC50 [1] | Ki [1] | IC50 [2] | IC50 [3] | Ki [3] | IC50 [4] | IC50 [5] | IC50 [6] | Ki [6] | IC50 [7] | Ki [7]

CO[C@H]1[C@@H](O)[C@H](N)[C@@H](O[C@H]2O[C@H]([C@H](C)N)CC[C@H]2N)[C@H](O)[C@@H]1N(C)C(=O)CN [ASTROMICIN]
Not Active: IC50 [1] | Ki [1] | IC50 [2] | IC50 [3] | Ki [3] | IC50 [4] | IC50 [5] | IC50 [6] | Ki [6] | IC50 [7] | Ki [7]

CCn1cc(C(=O)O)c(=O)c2cc(F)c(N3CCNCC3)nc21 [ENOXACIN]
Not Active: IC50 [1] | Ki [1] | IC50 [2] | IC50 [3] | Ki [3] | IC50 [4] | IC50 [5] | IC50 [6] | Ki [6] | IC50 [7] | Ki [7]

CCC(=O)O[C@H]1[C@H](O[C@@H]2[C@@H](C)[C@H](O[C@H]3C[C@@](C)(OC)[C@@H](O)[C@H](C)O3)[C@@H](C)C(=O)O[C@H](CC)[C@@](C)(O)[C@H](O)[C@@H](C)C(=O)[C@H](C)C[C@@]2(C)O)O[C@H](C)C[C@@H]1N(C)C [ERYTHROMYCIN PROPIONATE]
Not Active: IC50 [1] | Ki [1] | IC50 [2] | IC50 [3] | Ki [3] | IC50 [4] | IC50 [5] | IC50 [6] | Ki [6] | IC50 [7] | Ki [7]

COBALT(II) ACETYLACETONATE
Not Active: IC50 [1] | Ki [1] | IC50 [2] | Ki [2] | IC50 [3] | Ki [3] | IC50 [4] | Ki [4] | IC50 [5] | Ki [5] | IC50 [6] | Ki [6] | IC50 [7] | Ki [7]

Reference: ChEMBL document CHEMBL1909046, “DrugMatrix in vitro pharmacology data”
